Assays:
PTH secretion = experiment: Evaluation of PTH secretion promoting activity in rat (blood serum PTH, ELISA); type: in vivo; conditions: female F344 rat, oral 3 mg/5 mL/kg, Means ± S.D., n = 3; for Blood Serum PTH (1-84) Concentration, 0 minute: before administration
Experimental: Evaluation of PTH Secretion Promoting Activity in Rat
A 10 to 14-week old female F344 rat (Charles River Japan, Inc.) fasted overnight was anesthetized using ether, and blood serum before the administration was prepared by drawing blood from the jugular vein of the animal. Subsequently, the test compound was orally administered at a dose of 3 mg/5 mL/kg using a solvent (0.5% aqueous methyl cellulose solution containing 5% DMA). Blood was drawn from the jugular vein under ether anesthesia at 5, 15, 30, 60, 120, and 240 minutes after the administration of the test compound, and the blood serum was prepared. The blood serum PTH concentration was measured using rat Intact PTH ELISA kit (manufactured by Immutopics, Inc.).

[1] = target: T1, human calcium-sensing receptor (CaSR) (Homo sapiens, UniProt P41180); experiment: Inhibitory activity on calcium-sensing receptor (CaSR) using intracellular calcium increase as an indicator (FLIPR, CHO/hCaSR); type: cell-based; conditions: CHO/hCaSR cells; intracellular Ca increase induced by CaCl2; test compound 1.05 to 10,000 nM
T1 construct: expressed in transfected cells; host or cells: CHO cells (CHO/hCaSR)
T1 sequence (P41180 20-1078): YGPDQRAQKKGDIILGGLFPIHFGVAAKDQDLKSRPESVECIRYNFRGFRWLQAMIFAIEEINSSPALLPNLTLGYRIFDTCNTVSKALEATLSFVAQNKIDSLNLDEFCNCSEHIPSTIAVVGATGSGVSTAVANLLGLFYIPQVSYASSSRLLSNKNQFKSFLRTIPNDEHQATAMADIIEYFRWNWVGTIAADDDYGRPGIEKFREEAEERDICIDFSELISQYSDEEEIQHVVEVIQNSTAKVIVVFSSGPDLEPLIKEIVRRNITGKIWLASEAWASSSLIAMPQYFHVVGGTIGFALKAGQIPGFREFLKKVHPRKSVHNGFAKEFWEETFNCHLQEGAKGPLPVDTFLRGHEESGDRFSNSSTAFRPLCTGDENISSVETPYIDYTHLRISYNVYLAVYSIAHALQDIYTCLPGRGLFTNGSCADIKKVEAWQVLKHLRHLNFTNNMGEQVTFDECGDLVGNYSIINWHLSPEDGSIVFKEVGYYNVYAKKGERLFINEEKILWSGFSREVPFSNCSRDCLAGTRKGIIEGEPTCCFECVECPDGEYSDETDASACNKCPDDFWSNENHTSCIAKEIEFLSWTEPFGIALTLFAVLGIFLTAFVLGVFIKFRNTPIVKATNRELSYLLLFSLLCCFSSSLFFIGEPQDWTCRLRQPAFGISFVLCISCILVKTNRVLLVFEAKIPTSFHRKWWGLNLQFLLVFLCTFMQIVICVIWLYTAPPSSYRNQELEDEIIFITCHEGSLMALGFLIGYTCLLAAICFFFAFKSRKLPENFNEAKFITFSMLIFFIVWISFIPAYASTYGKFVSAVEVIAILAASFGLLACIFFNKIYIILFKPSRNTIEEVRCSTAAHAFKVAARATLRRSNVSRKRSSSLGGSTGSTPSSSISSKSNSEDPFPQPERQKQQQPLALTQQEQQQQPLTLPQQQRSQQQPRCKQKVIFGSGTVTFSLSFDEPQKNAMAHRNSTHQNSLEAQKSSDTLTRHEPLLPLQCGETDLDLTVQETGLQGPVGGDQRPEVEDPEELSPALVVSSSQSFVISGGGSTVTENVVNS
Experimental: Evaluation of inhibitory activity on calcium-sensing receptor (CaSR) using intracellular calcium increase as an indicator
The preparation which is prepared by adding CHO/hCaSR to F12 medium (manufactured by Invitrogen) containing 10% fetal bovine serum to have 2×10^5 cells/mL was applied to a 384-well in an amount of 50 μL/well, and then incubated overnight in a CO2 incubator. The culture supernatant was completely removed, the assay buffer (20 mM HEPES, HBSS (Ca and Mg free) containing 2.5 mM probenecid, pH 7.4) containing Calcium 3 (manufactured by Molecular Devices), i.e., a fluorescent intracellular calcium indicator, was added thereto in an amount of 25 μL/well, and the mixture was maintained for 1 hour in a CO2 incubator. Meanwhile, Calcium 3 was prepared according to the protocol enclosed in FLIPR Calcium 3 Assay Kit (manufactured by Molecular Devices). After maintaining it for 1 hour, a solution in which the test compound is prepared to have 2.1 to 20,000 nM (final concentration of 1.05 to 10,000 nM) by an assay buffer was added thereto in an amount of 25 μL/well, and maintained for 15 minutes in a CO2 incubator. Then, the CaCl2 solution prepared to have […] by using the assay buffer was added in an amount of 25 μL/well, and the resulting intracellular Ca increase (i.e., fluorescence intensity) was measured over time using a fluorescence imaging plate reader (FLIPR, manufactured by Molecular Devices). From the data obtained, the difference between the fluorescence intensity before the addition of CaCl2 solution and the maximum fluorescence intensity after the addition of CaCl2 solution was calculated, and the 50% inhibition concentration (IC50) of the test compound was obtained.

| Structure (SMILES) | Blood Serum PTH (1-84) Concentration, After 5 minutes (PTH secretion) | Blood Serum PTH (1-84) Concentration, After 15 minutes (PTH secretion) | Blood Serum PTH (1-84) Concentration, After 30 minutes (PTH secretion) | Blood Serum PTH (1-84) Concentration, After 60 minutes (PTH secretion) | Blood Serum PTH (1-84) Concentration, After 120 minutes (PTH secretion) | Blood Serum PTH (1-84) Concentration, After 240 minutes (PTH secretion) | Blood Serum PTH (1-84) Concentration, 0 minute (PTH secretion) | IC50 [1] |
| --- | --- | --- | --- | --- | --- | --- | --- | --- |
| Cc1cccc([C@@H](C)OC[C@H](O)CNC(C)(C)CC2Cc3ccccc3C2)c1CCC(=O)O [Example 4, 3-{2-[(1R)-1-{[(2R)-3-{[1-(2,3-Dihydro-1H-inden-2-yl)-2-methylpropan-2-yl]amino}-2-hydroxypropyl]oxy}ethyl]-6-methylphenyl}propanoic acid] | 68.2 ± 6.0 pg/mL | 489.1 ± 106.0 pg/mL | 538.6 ± 155.1 pg/mL | 117.0 ± 33.7 pg/mL | 108.8 ± 27.4 pg/mL | 91.9 ± 24.5 pg/mL | 20.5 ± 6.6 pg/mL | – |
| C[C@@H](OC[C@H](O)CNC1(CC2Cc3ccccc3C2)CC1)c1ccccc1CCC(=O)O [Example 14, 3-{2-[(1R)-1-{[(2R)-3-{[1-(2,3-Dihydro-1H-inden-2-ylmethyl)cyclopropyl]amino}-2-hydroxypropyl]oxy}ethyl]phenyl}propanoic acid] | 211.6 ± 28.4 pg/mL | 471.7 ± 112.8 pg/mL | 146.1 ± 45.2 pg/mL | 78.9 ± 5.0 pg/mL | 81.8 ± 4.9 pg/mL | 94.3 ± 15.7 pg/mL | 62.8 ± 11.4 pg/mL | ≤ 2510 nM |
